Measured values taken from patent US20130059879A1, “Small Molecule Inhibitors of PFKFB3 and Glycolytic Flux and Their Methods of Use as Anti-Cancer Therapeutics” (UNIVERSITY OF LOUISVILLE RESEARCH FOUNDATION, INC., priority 2010, published 2013).
One block for each molecule: values may come before it.

How the values were obtained:
Pharmacokinetics in rats = format: in vivo; conditions: male Sprague Dawley rats
Protocol: (§1) The pharmacokinetic parameters for several compounds were determined in mice following IV (intravenous), IP (intraperitoneal), or PO (per os) administration, as well as in rats and dogs. A typical study design includes six Balbc male mice 7 to 8 weeks old. For instance, a dose of 10 mg/kg was administered IV using a 5% DMS0/90% Captisol (20% in water) solution or other pharmaceutically acceptable parenteral and oral formulations. Blood samples were collected at different intervals. Plasma samples were extracted and analyzed using an LC-MS/MS method. Similar protocols were used for the rats (Sprague Dawley rats) or dogs (beagles) PK studies; in the case of dogs PK studies, the number of animals per group was three.
(§2) PFK-065 was dosed at 10 mg/kg in male Balbc mice; PFK-095 was dosed at 10 mg/kg in male Sprague Dawley rats; and PFK-112 dosed at 6 mg/kg in male beagle dogs.

H209 = assay: Cell proliferation, MTT assay, 72 hours; format: cell-based; conditions: Homo sapiens, NCI-H209
Protocol: (§3) The ability of the compounds described herein to kill or inhibit the proliferation of cancer cells was measured using either the MTT assay, or the Alamar Blue assay, or the Cell Titer Glow® assay using 48 or 72 hours exposure. […] The procedures are briefly described below. Cells of the desired tumor cell line were plated at 2×10^5 cells/ml in 96 well plates. Twice the indicated concentrations of the compounds of the invention were added to cells the following day in an equal volume of media. 72 hours later, cells were lysed and subjected to ATP determination using the CellTiter Glo-Luminescent Cell Viability Assay kit (Promega, Madison, Wis.). Experiments were done in triplicate. When using the MTT assay or the Alamar blue assay, the experimental conditions are essentially similar; at the end of the incubation period, 20 microliters of the MTT solution is added per well and the samples are incubated for an additional four hours, rinsed, and the absorbance at 570 nm measured. […] Table 2 lists the IC50 values for the compounds of the invention in several cell lines including Jurkat, Calu-6, NCI-H82, U937, HCT-116, and MDA-MB-231 cancer cell lines.

HCT-116 = assay: Cell proliferation, MTT assay, 72 hours; format: cell-based; conditions: Homo sapiens, HCT-116, MTT assay
Protocol: as §3

PC3 = assay: Cell proliferation, MTT assay, 72 hours; format: cell-based; conditions: Homo sapiens, PC-3
Protocol: as §3

[1] = Cell permeability in Caco2 monolayers; format: in vitro ADME; conditions: human, Caco-2, Caco2 cells, pH 7.4
Source text: (§4) The determination of the permeability in Caco2 or MDR1-MDCK cells is widely used when screening compounds to assess cell permeability, intestinal drug transport and predict absorption rates and to ascertain if a compound might be a Pgp substrate and have cross the blood brain barrier. […] Comparison of the apical to basal (A-B) and basal to apical (B-A) values show if a compound is actively effluxed out the cells and if it is a Pgp substrate. […] Briefly, cell permeability and transport mechanisms in Caco-2 and MDR1-MDCK monolayers experiments were performed in triplicate in the apical-to-basolateral and basolateral-to-apical direction using Transwell wells containing either Caco-2 or MDR1-MDCK monolayers. A modified Hanks buffer pH 7.4 was used in both reservoir and receiver wells with the addition of 1% BSA in the receiver side. Confluent monolayers were used and their integrity was verified using reference compounds (Atenolol as a low permeability reference compound and Propanolol as a high permeability reference compound). A sample in the basolateral and apical sides was taken after 2 hours and the concentration measured by LC/MS-MS.

Pharmacokinetics in dogs = format: in vivo; conditions: male beagle dogs
Protocol: as §1, §2

H22 = assay: Cell proliferation, MTT assay, 48 hours; format: cell-based; conditions: Mus musculus
Protocol: as §3

SK-BR-3 = assay: Cell proliferation, MTT assay, 48 hours; format: cell-based; conditions: Homo sapiens, SK-BR-3, MTT assay
Protocol: as §3

A549 = assay: Cell proliferation, MTT assay, 48 hours; format: cell-based; conditions: Homo sapiens
Protocol: as §3

MiaPaca = assay: Cell proliferation, MTT assay, 48 hours; format: cell-based; conditions: Homo sapiens, MIA PaCa-2
Protocol: as §3

U87MG = assay: Cell proliferation, MTT assay, 48 hours; format: cell-based; conditions: Homo sapiens, U-87 MG
Protocol: as §3

SK-N-SH = assay: Cell proliferation, MTT assay, 48 hours; format: cell-based; conditions: Homo sapiens
Protocol: as §3

BT474 = assay: Cell proliferation, MTT assay, 48 hours; format: cell-based; conditions: Homo sapiens, BT-474
Protocol: as §3

LnCap = assay: Cell proliferation, MTT assay, 48 hours; format: cell-based; conditions: Homo sapiens
Protocol: as §3

BX-PC-3 = assay: Cell proliferation, MTT assay, 48 hours; format: cell-based; conditions: Homo sapiens, BXPC-3, BX-PC-3, MTT assay
Protocol: as §3

CT26 = assay: Cell proliferation, MTT assay, 48 hours; format: cell-based; conditions: Mus musculus
Protocol: as §3

[2] = Cell permeability in MDR1-MDCK monolayers; format: in vitro ADME; conditions: dog, MDR1-MDCK cells, pH 7.4
Source text: as §4

Cmax (Pharmacokinetics in rats; IV 10 mg/kg): 16932 ng/mL
T1/2b (Pharmacokinetics in rats; IV 10 mg/kg): 5.5 h
Vd (Pharmacokinetics in rats; IV 10 mg/kg): 2.5 L/kg
% F (from PO group) (Pharmacokinetics in rats; oral bioavailability, PO 10 mg/kg): 38%
AUC(0-inf) (Pharmacokinetics in rats; rat, plasma, IV 10 mg/kg): 1290 ng·h/mL
IC50 (H209): 0.19 µM
IC50 (HCT-116): 0.51 µM
IC50 (PC3): 0.95 µM
Papp A→B at 2 h ([1]; apical to basal): 16.2 ×10⁻⁶ cm/s
Papp B→A at 2 h ([1]; basal to apical): 8.9 ×10⁻⁶ cm/s
Compound: O=C(c1ccncc1)c1cc2c(ccc3ccccc32)[nH]1 [ACT-PFK-095, (3H-Benzo[e]indol-2-yl)-pyridin-4-yl-methanone]

T1/2b (Pharmacokinetics in dogs; IV 6 mg/kg): 5.8 h
AUC(0-inf) (Pharmacokinetics in dogs; dog, plasma, IV 6 mg/kg): 5070 ng·h/mL
Cmax (Pharmacokinetics in dogs; dog, plasma, IV 6 mg/kg): 5060 ng/mL
Vd (Pharmacokinetics in dogs; dog, plasma, IV 6 mg/kg): 1.8 L/kg
% F (from PO group) (Pharmacokinetics in dogs; oral bioavailability, PO 24 mg/kg vs IV 6 mg/kg): 95%
IC50 (SK-BR-3): 1.11 µM
IC50 (A549): 0.822 µM
IC50 (MiaPaca): 0.154 µM
IC50 (U87MG): 3.79 µM
IC50 (SK-N-SH): 0.305 µM
IC50 (BT474): 1.37 µM
IC50 (LnCap): 1.03 µM
IC50 (BX-PC-3): 0.135 µM
IC50 (CT26): 1.95 µM
Papp A→B at 2 h ([2]; apical to basal): 7.8 ×10⁻⁶ cm/s
Papp B→A at 2 h ([2]; basal to apical): 17.3 ×10⁻⁶ cm/s
Compound: Nc1ccc(C(=O)c2cc3c(ccc4ccccc43)[nH]2)cc1 [ACT-PFK-112, (4-Amino-phenyl)-(3H-benzo[e]indol-2-yl)-methanone]
IC50 (H22): 0.513 µM
